Test system: CD1 female mouse brain lipidome
Test: Brain-region lipid levels (HPLC/MS/MS lipidomics) 2 h after single i.p. 3 mg/kg CP 55,940 vs vehicle
Assay type: in vivo
Set-up: N-arachidonoyl phenylalanine level, Mean / N-stearoyl tryptophan level, Mean / N-stearoyl proline level, Mean / N-stearoyl leucine level, Mean / N-stearoyl phenylalanine level, Mean / N-stearoyl serine level, Mean / N-stearoyl methionine level, Mean: unit: moles per gram
Details: cortex
Description: The Bloomington Institutional Animal Care and Use Committee of Indiana University reviewed and approved the animal procedures. Female mice from the CD1 strain were utilized to match our study examining THC’s effects on the brain lipidome ([Leishman et al., 2018]). Mice were given a single i.p. injection of either 3 mg/kg CP or 1:1:18 cremophor:ethanol:saline vehicle (please refer to the section “3 mg/kg CP Is Relevant for Synthetic Cannabinoid Abuse and Has Stronger Effects on the Female Mouse Brain Lipidome During Adolescence” for a justification of dose and use of female mice). Three different age groups were given injections: PND 35 and PND 50 adolescents, and adult mice (PND 113). At least eight mice in each age group received CP and at least eight received vehicle. Matching the THC study time course ([Leishman et al., 2018]), mice were sacrificed via rapid decapitation 2 h after injection. Brains were immediately removed and flash-frozen in liquid nitrogen, and then stored at -80°C until dissections were performed. Brains were dissected on an ice-cold dissection plate into the following regions: STR, HIPP, CER, THAL, CTX, HYP, MID, and STEM. These abbreviations for these brain areas will be used exclusively when discussing the results generated by these specific dissections. Each dissected area was immediately placed in liquid nitrogen and then stored at -80°C until used for lipid extraction.
Tissue extracts were performed as previously described ([Bradshaw et al., 2006]; [Stuart et al., 2013]; [Raboune et al., 2014]; [Leishman et al., 2016a],[b], [2017], [2018]). First, samples were shock frozen in liquid nitrogen, weighed, and transferred to a centrifuge tube. The mass of the largest sample was multiplied by 50 to determine how many milliliters of HPLC-grade methanol (Fisher, Fair Lawn, NJ, United States) to add. Then, samples were spiked with 500 pmol deuterium-labeled NAGly (d8NAGly; Cayman Chemical, Ann Arbor, MI, United States). Samples were placed on ice in darkness for 2 h then individually homogenized and centrifuged at 19,000 × g for 20 min at 20°C. Supernatants were diluted with HPLC water (purified in house) to make a solution of 75% water, 25% supernatant. Lipids were partially purified on C18 solid phase extraction columns (Agilent, Palo Alto, CA, United States). A series of four elutions with 1.5 mL of 60%, 75%, 85%, and 100% methanol were collected ([Stuart et al., 2013]; [Leishman et al., 2016a],[b], [2018]).
As previously described ([Bradshaw et al., 2006]; [Tan et al., 2006]; [Smoum et al., 2010]; [Stuart et al., 2013]; [Tortoriello et al., 2013]; [Raboune et al., 2014]; [Leishman et al., 2016a],[b], [2017], [2018]), samples were analyzed using an Applied Biosystems API 3000 triple quadrupole mass spectrometer with electrospray ionization (Foster City, CA, United States). Using an Agilent XDB-C18 reversed phase analytical column and optimized mobile phase gradients, 20 μL from each elution were chromatographed. Two Shimadzu 10ADvp pumps (Columbia, MD, United States) provided the pressure for gradient elution. Mobile phase A: 20% methanol, 80% water (v/v) and 1 mM ammonium acetate (Sigma, St. Louis, MO, United States). Mobile phase B: 100% methanol, 1 mM ammonium acetate. Every method run began with 0% mobile phase B, reached 100% mobile phase B flowing at 0.2 mL/min, and gradually returned to 0% mobile phase B.
This screening library will be referred to as the lipidome when discussing data from this study. HPLC/MS/MS data were analyzed using Analyst software (Applied Biosystems) ([Bradshaw et al., 2006]; [Tan et al., 2006]; [Stuart et al., 2013]; [Tortoriello et al., 2013]; [Raboune et al., 2014]; [Leishman et al., 2016a],[b], [2017], [2018]). Chromatograms (Supplementary Figure 3) were generated by determining the retention time of analytes from the analytical column with a [M-1] or [M+1] parent peak and a fragmentation peak corresponding to the programmed values. […]

[1] = PND 50, 3 mg/kg CP 55,940, ANOVA p .000
[2] = PND 50, 3 mg/kg CP 55,940, ANOVA p .002
[3] = PND 50, 3 mg/kg CP 55,940, ANOVA p .004
[4] = PND 50, 3 mg/kg CP 55,940, ANOVA p .040
[5] = PND 50 female mice, 3mg/kg CP 55,940

For `CCCCCCC(C)(C)c1ccc([C@@H]2C[C@H](O)CC[C@H]2CCCO)c(O)c1` [CP 55,940], the “Arachidonic acid, Direction (relative to Veh)” value (PND 50, 3 mg/kg CP 55,940) was “↓”, the “Linoleic acid, Direction (relative to Veh)” value (PND 50, 3 mg/kg CP 55,940) was “↓” and the “N-arachidonoyl GABA Direction (relative to Veh)” value (PND 50, 3 mg/kg CP 55,940) was “↓”. For the same compound, the “N-arachidonoyl alanine, Direction (relative to Veh)” value (PND 50, 3 mg/kg CP 55,940) was “↓”, the “N-arachidonoyl ethanolamine, Direction (relative to Veh)” value (PND 50, 3 mg/kg CP 55,940) was “↓” and the “N-arachidonoyl phenylalanine, Direction (relative to Veh)” value (PND 50, 3 mg/kg CP 55,940) was “↓”. The “N-arachidonoyl taurine Direction (relative to Veh)” value (PND 50, 3 mg/kg CP 55,940) was “↓”, the “N-docosahexaenoyl ethanolamine, Direction (relative to Veh)” value (PND 50, 3 mg/kg CP 55,940) was “↓” and the “N-linoleoyl ethanolamine, Direction (relative to Veh)” value (PND 50, 3 mg/kg CP 55,940) was “↓”. The “N-oleoyl ethanolamine, Direction (relative to Veh)” value (PND 50, 3 mg/kg CP 55,940) was “↓”, the “N-oleoyl serine, Direction (relative to Veh)” value (PND 50, 3 mg/kg CP 55,940) was “↑” and the “N-palmitoyl leucine, Direction (relative to Veh)” value (PND 50, 3 mg/kg CP 55,940) was “↑”. For the same compound, the “N-palmitoyl methionine, Direction (relative to Veh)” value (PND 50, 3 mg/kg CP 55,940) was “↑”, the “N-palmitoyl phenylalanine Direction (relative to Veh)” value (PND 50, 3 mg/kg CP 55,940) was “↑” and the “N-palmitoyl tyrosine, Direction (relative to Veh)” value (PND 50, 3 mg/kg CP 55,940) was “↑”. The “N-palmitoyl valine Direction (relative to Veh)” value (PND 50, 3 mg/kg CP 55,940) was “↑”, the “N-stearoyl phenylalanine, Direction (relative to Veh)” value (PND 50, 3 mg/kg CP 55,940) was “↑” and the “N-stearoyl valine Direction (relative to Veh)” value (PND 50, 3 mg/kg CP 55,940) was “↑”. The “PGE2 Direction (relative to Veh)” value (PND 50, 3 mg/kg CP 55,940) was “↓”, the “Linoleic acid, Magnitude (x Veh level)” value [1] was 0.57 x Veh level and the “N-palmitoyl leucine, Magnitude (x Veh level)” value [1] was 1.41 x Veh level. For the same compound, the “N-palmitoyl methionine, Magnitude (x Veh level)” value [1] was 1.43 x Veh level, the “N-oleoyl ethanolamine, Magnitude (x Veh level)” value [2] was 0.65 x Veh level and the “PGE2 Magnitude (x Veh level)” value [2] was 0.79 x Veh level. For the same compound, the “N-arachidonoyl GABA Magnitude (x Veh level)” value [3] was 0.86 x Veh level, the “N-arachidonoyl taurine Magnitude (x Veh level)” value [3] was 0.84 x Veh level and the “2-linoleoyl glycerol Magnitude (x Veh level)” value (PND 50, 3 mg/kg CP 55,940, ANOVA p .005) was 0.67 x Veh level. The “N-palmitoyl phenylalanine Magnitude (x Veh level)” value (PND 50, 3 mg/kg CP 55,940, ANOVA p .006) was 1.39 x Veh level, the “N-arachidonoyl ethanolamine, Magnitude (x Veh level)” value (PND 50, 3 mg/kg CP 55,940, ANOVA p .007) was 0.70 x Veh level and the “N-arachidonoyl alanine Magnitude (x Veh level)” value (PND 50, 3 mg/kg CP 55,940, ANOVA p .012) was 0.75 x Veh level. The “N-docosahexaenoyl ethanolamine, Magnitude (x Veh level)” value (PND 50, 3 mg/kg CP 55,940, ANOVA p .014) was 0.72 x Veh level, the “2-oleoyl glycerol, Magnitude (x Veh level)” value (PND 50, 3 mg/kg CP 55,940, ANOVA p .018) was 0.88 x Veh level and the “N-palmitoyl valine Magnitude (x Veh level)” value (PND 50, 3 mg/kg CP 55,940, ANOVA p .019) was 1.37 x Veh level. For the same compound, the “N-stearoyl phenylalanine, Magnitude (x Veh level)” value (PND 50, 3 mg/kg CP 55,940, ANOVA p .039) was 1.12 x Veh level, the “Arachidonic acid, Magnitude (x Veh level)” value [4] was 0.76 x Veh level and the “N-oleoyl serine, Magnitude (x Veh level)” value [4] was 1.09 x Veh level. The “N-arachidonoyl phenylalanine, Magnitude (x Veh level)” value (PND 50, 3 mg/kg CP 55,940, ANOVA p .044) was 0.78 x Veh level, the “N-palmitoyl tyrosine Magnitude (x Veh level)” value (PND 50, 3 mg/kg CP 55,940, ANOVA p .053) was 1.25 x Veh level and the “N-linoleoyl ethanolamine, Magnitude (x Veh level)” value (PND 50, 3 mg/kg CP 55,940, ANOVA p .066) was 0.69 x Veh level. For the same compound, the “N-stearoyl valine Magnitude (x Veh level)” value (PND 50, 3 mg/kg CP 55,940, ANOVA p .067) was 1.29 x Veh level, the “2-arachidonoyl glycerol level, Mean” value [5] was 2.72E-09 and the “2-linoleoyl glycerol level, Mean” value [5] was 9.55E-11. For the same compound, the “2-oleoyl glycerol level, Mean” value [5] was 1.53E-09, the “2-palmitoyl glycerol level, Mean” value [5] was 5.35E-09 and the “6-ketoPGF1α level, Mean” value [5] was 5.34E-12. The “11-OH-THC level, Mean” value [5] was “BDL”, the “11-nor-9-carboxyTHC level, Mean” value [5] was “BDL” and the “Arachidonic acid level, Mean” value [5] was 1.42E-09. For the same compound, the “Cannabidiol level, Mean” value [5] was “BDL”, the “Linoleic acid level, Mean” value [5] was 9.48E-10 and the “N- stearoyl valine level, Mean” value [5] was 2.32E-13. For the same compound, the “N-arachidonoyl GABA level, Mean” value [5] was 1.93E-11, the “N-arachidonoyl alanine level, Mean” value [5] was 9.08E-13 and the “N-arachidonoyl dopamine level, Mean” value [5] was “BDL”. The “N-arachidonoyl ethanolamine level, Mean” value [5] was 1.23E-11, the “N-arachidonoyl glycine level, Mean” value [5] was 3.26E-12 and the “N-arachidonoyl phenylalanine level, Mean” value [5] was 4.3E-13. The “N-arachidonoyl proline level, Mean” value [5] was “BDL”, the “N-arachidonoyl serine level, Mean” value [5] was 1.27E-11 and the “N-arachidonoyl taurine level, Mean” value [5] was 5.99E-11. For the same compound, the “N-arachidonoyl tryptophan level, Mean” value [5] was “BDL”, the “N-arachidonoyl tyrosine level, Mean” value [5] was 1.87E-13 and the “N-docosahexaenoyl GABA level, Mean” value [5] was 9.29E-12. For the same compound, the “N-docosahexaenoyl ethanolamine level, Mean” value [5] was 1.26E-11, the “N-docosahexaenoyl glycine level, Mean” value [5] was 3.17E-13 and the “N-docosahexaenoyl leucine level, Mean” value [5] was 3.29E-13. The “N-docosahexaenoyl methionine level, Mean” value [5] was “BDL”, the “N-docosahexaenoyl phenylalanine level, Mean” value [5] was 4.81E-13 and the “N-docosahexaenoyl proline level, Mean” value [5] was “BDL”. For the same compound, the “N-docosahexaenoyl serine level, Mean” value [5] was 1.83E-11, the “N-docosahexaenoyl tryptophan level, Mean” value [5] was “BDL” and the “N-docosahexaenoyl tyrosine level, Mean” value [5] was 3.22E-13. For the same compound, the “N-docosahexaenoyl valine level, Mean” value [5] was “PISSR”, the “N-linoleoyl GABA level, Mean” value [5] was 6.54E-12 and the “N-linoleoyl ethanolamine level, Mean” value [5] was 1.61E-11. For the same compound, the “N-linoleoyl glycine level, Mean” value [5] was 1.08E-13, the “N-linoleoyl leucine level, Mean” value [5] was 7.72E-14 and the “N-linoleoyl methionine level, Mean” value [5] was “BDL”. For the same compound, the “N-linoleoyl phenylalanine level, Mean” value [5] was 1E-13, the “N-linoleoyl proline level, Mean” value [5] was “BDL” and the “N-linoleoyl serine level, Mean” value [5] was 6.54E-11. For the same compound, the “N-linoleoyl tryptophan level, Mean” value [5] was “BDL”, the “N-linoleoyl tyrosine level, Mean” value [5] was “BDL” and the “N-linoleoyl valine level, Mean” value [5] was “PISSR”. The “N-nervonoyl valine level, Mean” value [5] was “BDL”, the “N-oleoyl GABA level, Mean” value [5] was 1.38E-11 and the “N-oleoyl alanine level, Mean” value [5] was 1.52E-12. The “N-oleoyl dopamine level, Mean” value [5] was “BDL”, the “N-oleoyl ethanolamine level, Mean” value [5] was 3.66E-11 and the “N-oleoyl glycine level, Mean” value [5] was 1.38E-12. The “N-oleoyl leucine level, Mean” value [5] was 7.87E-13, the “N-oleoyl methionine level, Mean” value [5] was 2.34E-13 and the “N-oleoyl phenylalanine level, Mean” value [5] was 1.02E-12. The “N-oleoyl proline level, Mean” value [5] was “BDL”, the “N-oleoyl serine level, Mean” value [5] was 1.22E-10 and the “N-oleoyl tryptophan level, Mean” value [5] was “BDL”. For the same compound, the “N-oleoyl tyrosine level, Mean” value [5] was 3.4E-13, the “N-oleoyl valine level, Mean” value [5] was 6.43E-14 and the “N-palmitoyl GABA level, Mean” value [5] was 1.74E-11. For the same compound, the “N-palmitoyl alanine level, Mean” value [5] was 1.42E-12, the “N-palmitoyl ethanolamine level, Mean” value [5] was 1.43E-11 and the “N-palmitoyl glycine level, Mean” value [5] was 6.08E-12.

Source: PMC6277767, “Broad and Region-Specific Impacts of the Synthetic Cannabinoid CP 55,940 in Adolescent and Adult Female Mouse Brains” (Frontiers in Molecular Neuroscience, 2018)
